Source: patent US11071488B2, “Method for determining the likelihood of torsades de pointes being induced” (ASSISTANCE PUBLIQUE—HOPITAUX DE PARIS, priority 2016, dated 2021)
Like-named read-outs stand apart in the source and are kept apart here.

Assays:
IKr channel [1] = biological target: T1, IKr channel (Homo sapiens, UniProt Q12809); settings: for double peaks (notches) three hours after taking sotalol: 80 mg sotalol
Description: The QTcF, TAmp and TpTe were measured according to the same protocol as for example 1, before and three hours after administration of a single oral dose of sotalol at 80 mg.
The ΔQTcF, ΔTpTe and ΔTAmp were also calculated.

IKr channel [2] = biological target: T1, IKr channel; assay: ECG changes three hours after a single oral dose of 80 mg sotalol (GENEREPOL cohort, Example 1); assay type: in vivo; set-up: from tissue; host or cells: heart (ventricular myocardium) of living human volunteers; surface ECG read-out; settings: H3
Description: The cohort of patients was that of the GENEREPOL study, and consisted of 995 volunteers in good health, from 18 to 60 years old, of European or North African origin. The objective of this study was to identify genetic predispositions linked to the inhibition of the IKr channel after administration of 80 mg sotalol, with a body mass index between 19 and 29 kg/m^2, informed consent having been received. […]
An intravenous catheter was inserted for taking blood samples. The ECG of the patients was then recorded using the Cardioplug device (Cardionics Inc®, Brussels, Belgium) connected to a laptop computer. […] Three hours after sotalol had been taken ([…]), the ECG was again recorded (in triplicate) after the subjects had remained lying on their back for 10 minutes and before lunch. […]
The QTcF, TpTe and TAmp and the presence of notches (double peak) in the T wave were quantified. […]
The quantitative analysis of the QTcF, TpTe and TAmp was carried out by two trained investigators, in order to limit the inter-evaluator variability.
TpTe was measured by the tangent method, in triplicate, on a representative beat (average representation of an ECG of 10 seconds) on the V3, V4 and V5 leads. […]
QTcF was measured by the tangent method on the DII lead for three consecutive beats and the average value of an evaluation in triplicate was retained. […]

IKr potassium channel = IKr potassium channel (Homo sapiens, UniProt Q12809); settings: cited from earlier work
Sequence of IKr potassium channel (Q12809 whole entry): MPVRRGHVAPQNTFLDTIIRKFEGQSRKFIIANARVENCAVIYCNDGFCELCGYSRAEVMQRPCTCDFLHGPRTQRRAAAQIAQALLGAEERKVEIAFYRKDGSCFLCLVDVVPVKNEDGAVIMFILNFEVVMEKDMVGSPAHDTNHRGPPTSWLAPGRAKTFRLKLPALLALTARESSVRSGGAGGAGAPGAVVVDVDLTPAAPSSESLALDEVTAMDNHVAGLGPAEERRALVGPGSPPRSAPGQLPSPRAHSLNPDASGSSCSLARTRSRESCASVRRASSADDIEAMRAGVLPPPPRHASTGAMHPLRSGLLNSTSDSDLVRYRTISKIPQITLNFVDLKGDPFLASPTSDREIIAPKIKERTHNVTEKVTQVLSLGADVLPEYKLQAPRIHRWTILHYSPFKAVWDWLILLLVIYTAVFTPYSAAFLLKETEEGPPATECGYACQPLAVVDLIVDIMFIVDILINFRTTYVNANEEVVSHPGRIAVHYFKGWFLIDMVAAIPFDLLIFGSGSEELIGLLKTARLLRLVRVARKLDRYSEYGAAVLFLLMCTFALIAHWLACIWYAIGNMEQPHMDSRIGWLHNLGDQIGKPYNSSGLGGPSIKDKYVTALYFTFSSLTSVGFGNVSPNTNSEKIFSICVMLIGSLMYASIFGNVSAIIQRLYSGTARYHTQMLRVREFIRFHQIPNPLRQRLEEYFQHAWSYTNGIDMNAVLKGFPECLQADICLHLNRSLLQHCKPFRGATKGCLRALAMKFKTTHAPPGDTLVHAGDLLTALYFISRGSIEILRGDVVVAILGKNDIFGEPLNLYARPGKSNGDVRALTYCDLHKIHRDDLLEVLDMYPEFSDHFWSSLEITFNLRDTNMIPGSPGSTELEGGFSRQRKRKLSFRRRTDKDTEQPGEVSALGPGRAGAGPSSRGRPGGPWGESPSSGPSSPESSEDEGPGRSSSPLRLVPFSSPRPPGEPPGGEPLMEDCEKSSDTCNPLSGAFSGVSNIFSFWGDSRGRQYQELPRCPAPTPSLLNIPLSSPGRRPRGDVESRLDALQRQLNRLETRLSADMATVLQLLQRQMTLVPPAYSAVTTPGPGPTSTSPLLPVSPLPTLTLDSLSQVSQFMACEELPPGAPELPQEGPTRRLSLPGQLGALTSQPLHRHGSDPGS

T1 sequence (Q12809 whole entry): as above

Row | SMILES | double peaks (notches) three hours after taking sotalol (IKr channel [1]; women taking drospirenone) [%] | subjects exhibiting a double peak (notch) (IKr channel [2]; first (exploration) cohort, 40 subjects) [%] | subjects exhibiting a double peak (notch) (IKr channel [2]; second (replication) cohort, 51 subjects) [%] | risk of induction of torsades de pointes (IKr potassium channel; dose-dependent) | increase in QT/QTc (IKr potassium channel; sotalol at 80 mg) | induction of an episode of torsade de pointes (IKr potassium channel; sotalol at 80 mg) | time of maximum concentration after oral intake (IKr potassium channel; taken orally) | double peaks (notches) three hours after taking sotalol (IKr channel [1]; women not taking an oral contraceptive) [%] | plasma sotalol concentration (IKr channel [1]; women taking drospirenone vs women with no contraception)
1 | C[C@]12CCC(=O)C=C1[C@@H]1C[C@@H]1[C@H]1[C@@H]3[C@@H]4C[C@@H]4[C@@]4(CCC(=O)O4)[C@@]3(C)CC[C@@H]12 [drospirenone] | 25.8 |  |  |  |  |  |  |  | 
2 | CC(C)NCC(O)c1ccc(NS(C)(=O)=O)cc1 (stereo not drawn) [sotalol] |  | 8 | 10 | up to 7 % of patients treated | approximately 20 ms | does not induce an episode of torsade de pointes | approximately 3 hours | 13.4 | No difference
